Numbers after ± are expanded uncertainties.
Assays:
[1] = 101.33 kPa, Liquid, Vibrating tube method
[2] = refractive index (Na D-line) (dimensionless); details: 101.33 kPa, Liquid, Standard Abbe refractometry

SMILES: CCCCn1cc[n+](C)c1.F[P-](F)(F)(F)(F)F [1-butyl-3-methylimidazolium hexafluorophosphate]
- mass density ([1]; 298.2 K): 1363.9 ± 0.9 kg/m3
- mass density ([1]; 299.2 K): 1363.2 ± 0.9 kg/m3
- mass density ([1]; 300.2 K): 1362.4 ± 0.9 kg/m3
- mass density ([1]; 301.2 K): 1361.6 ± 0.9 kg/m3
- mass density ([1]; 302.2 K): 1360.8 ± 0.9 kg/m3
- mass density ([1]; 303.2 K): 1360.1 ± 0.9 kg/m3
- mass density ([1]; 304.2 K): 1359.3 ± 0.9 kg/m3
- mass density ([1]; 305.2 K): 1358.5 ± 0.9 kg/m3
- mass density ([1]; 306.2 K): 1357.8 ± 0.9 kg/m3
- mass density ([1]; 307.2 K): 1357 ± 0.9 kg/m3
- mass density ([1]; 308.2 K): 1356.2 ± 0.9 kg/m3
- mass density ([1]; 313.2 K): 1352.8 ± 0.9 kg/m3
- mass density ([1]; 318.2 K): 1348.8 ± 0.9 kg/m3
- mass density ([1]; 323.2 K): 1344.9 ± 0.9 kg/m3
- mass density ([1]; 333.2 K): 1336.9 ± 0.9 kg/m3
- mass density ([1]; 343.2 K): 1329 ± 0.9 kg/m3
- mass density ([1]; 353.2 K): 1321.1 ± 0.9 kg/m3
- refractive index ([2]; 298.2 K): 1.4095 ± 0.0007
- refractive index ([2]; 299.2 K): 1.4093 ± 0.0007
- refractive index ([2]; 300.2 K): 1.4091 ± 0.0007
- refractive index ([2]; 301.2 K): 1.4089 ± 0.0007
- refractive index ([2]; 302.2 K): 1.4087 ± 0.0007
- refractive index ([2]; 303.2 K): 1.4085 ± 0.0007
- refractive index ([2]; 304.2 K): 1.4083 ± 0.0007
- refractive index ([2]; 305.2 K): 1.4081 ± 0.0007
- refractive index ([2]; 306.2 K): 1.4079 ± 0.0007
- refractive index ([2]; 307.2 K): 1.4077 ± 0.0007
- refractive index ([2]; 308.2 K): 1.4075 ± 0.0007

SMILES: CCCCn1cc[n+](C)c1.COS(=O)(=O)[O-] [1-butyl-3-methylimidazolium methyl sulfate]
- mass density ([1]; 298.2 K): 1205.7 ± 1.4 kg/m3
- mass density ([1]; 299.2 K): 1205 ± 1.4 kg/m3
- mass density ([1]; 300.2 K): 1204.4 ± 1.4 kg/m3
- mass density ([1]; 301.2 K): 1203.8 ± 1.4 kg/m3
- mass density ([1]; 302.2 K): 1203.1 ± 1.4 kg/m3
- mass density ([1]; 303.2 K): 1202.5 ± 1.4 kg/m3
- mass density ([1]; 304.2 K): 1201.9 ± 1.4 kg/m3
- mass density ([1]; 305.2 K): 1201.2 ± 1.4 kg/m3
- mass density ([1]; 306.2 K): 1200.6 ± 1.4 kg/m3
- mass density ([1]; 307.2 K): 1199.9 ± 1.4 kg/m3
- mass density ([1]; 308.2 K): 1199.3 ± 1.4 kg/m3
- mass density ([1]; 313.2 K): 1196.2 ± 1.4 kg/m3
- mass density ([1]; 318.2 K): 1193 ± 1.4 kg/m3
- mass density ([1]; 323.2 K): 1189.9 ± 1.4 kg/m3
- mass density ([1]; 333.2 K): 1183.5 ± 1.4 kg/m3
- mass density ([1]; 343.2 K): 1177 ± 1.4 kg/m3
- mass density ([1]; 353.2 K): 1170.6 ± 1.4 kg/m3
- refractive index ([2]; 298.2 K): 1.4792 ± 0.0008
- refractive index ([2]; 299.2 K): 1.4789 ± 0.0008
- refractive index ([2]; 300.2 K): 1.4787 ± 0.0008
- refractive index ([2]; 301.2 K): 1.4784 ± 0.0008
- refractive index ([2]; 302.2 K): 1.4782 ± 0.0008
- refractive index ([2]; 303.2 K): 1.4779 ± 0.0008
- refractive index ([2]; 304.2 K): 1.4776 ± 0.0008
- refractive index ([2]; 305.2 K): 1.4774 ± 0.0008
- refractive index ([2]; 306.2 K): 1.4771 ± 0.0008
- refractive index ([2]; 307.2 K): 1.4768 ± 0.0008
- refractive index ([2]; 308.2 K): 1.4766 ± 0.0008

SMILES: CCCCn1cc[n+](C)c1.F[B-](F)(F)F [1-butyl-3-methylimidazolium tetrafluoroborate]
- mass density ([1]; 298.2 K): 1201 ± 0.9 kg/m3
- mass density ([1]; 299.2 K): 1200.3 ± 0.9 kg/m3
- mass density ([1]; 300.2 K): 1199.6 ± 0.9 kg/m3
- mass density ([1]; 301.2 K): 1199 ± 0.9 kg/m3
- mass density ([1]; 302.2 K): 1198.3 ± 0.9 kg/m3
- mass density ([1]; 303.2 K): 1197.6 ± 0.9 kg/m3
- mass density ([1]; 304.2 K): 1196.9 ± 0.9 kg/m3
- mass density ([1]; 305.2 K): 1196.2 ± 0.9 kg/m3
- mass density ([1]; 306.2 K): 1195.6 ± 0.9 kg/m3
- mass density ([1]; 307.2 K): 1194.9 ± 0.9 kg/m3
- mass density ([1]; 308.2 K): 1194.2 ± 0.9 kg/m3
- mass density ([1]; 313.2 K): 1190.8 ± 0.9 kg/m3
- mass density ([1]; 318.2 K): 1187.4 ± 0.9 kg/m3
- mass density ([1]; 323.2 K): 1184 ± 0.9 kg/m3
- mass density ([1]; 333.2 K): 1177.2 ± 0.9 kg/m3
- mass density ([1]; 343.2 K): 1170.4 ± 0.9 kg/m3
- mass density ([1]; 353.2 K): 1163.6 ± 0.9 kg/m3
- refractive index ([2]; 298.2 K): 1.4218 ± 0.0007
- refractive index ([2]; 299.2 K): 1.4216 ± 0.0007
- refractive index ([2]; 300.2 K): 1.4213 ± 0.0007
- refractive index ([2]; 301.2 K): 1.4211 ± 0.0007
- refractive index ([2]; 302.2 K): 1.4208 ± 0.0007
- refractive index ([2]; 303.2 K): 1.4206 ± 0.0007
- refractive index ([2]; 304.2 K): 1.4204 ± 0.0007
- refractive index ([2]; 305.2 K): 1.4201 ± 0.0007
- refractive index ([2]; 306.2 K): 1.4199 ± 0.0007
- refractive index ([2]; 307.2 K): 1.4197 ± 0.0007
- refractive index ([2]; 308.2 K): 1.4195 ± 0.0007

SMILES: CCCCn1cc[n+](C)c1.O=S(=O)([O-])C(F)(F)F [1-butyl-3-methylimidazolium trifluoromethanesulfonate]
- mass density ([1]; 298.2 K): 1303.8 ± 1.5 kg/m3
- mass density ([1]; 299.2 K): 1303 ± 1.5 kg/m3
- mass density ([1]; 300.2 K): 1302.3 ± 1.5 kg/m3
- mass density ([1]; 301.2 K): 1301.5 ± 1.5 kg/m3
- mass density ([1]; 302.2 K): 1300.8 ± 1.5 kg/m3
- mass density ([1]; 303.2 K): 1300 ± 1.5 kg/m3
- mass density ([1]; 304.2 K): 1299.2 ± 1.5 kg/m3
- mass density ([1]; 305.2 K): 1298.5 ± 1.5 kg/m3
- mass density ([1]; 306.2 K): 1297.7 ± 1.5 kg/m3
- mass density ([1]; 307.2 K): 1297 ± 1.5 kg/m3
- mass density ([1]; 308.2 K): 1296.2 ± 1.5 kg/m3
- mass density ([1]; 313.2 K): 1292.4 ± 1.5 kg/m3
- mass density ([1]; 318.2 K): 1288.6 ± 1.5 kg/m3
- mass density ([1]; 323.2 K): 1284.7 ± 1.5 kg/m3
- mass density ([1]; 333.2 K): 1277.1 ± 1.5 kg/m3
- mass density ([1]; 343.2 K): 1269.5 ± 1.4 kg/m3
- mass density ([1]; 353.2 K): 1261.9 ± 1.4 kg/m3
- refractive index ([2]; 298.2 K): 1.4368 ± 0.0008
- refractive index ([2]; 299.2 K): 1.4366 ± 0.0008
- refractive index ([2]; 300.2 K): 1.4364 ± 0.0008
- refractive index ([2]; 301.2 K): 1.4362 ± 0.0008
- refractive index ([2]; 302.2 K): 1.436 ± 0.0008
- refractive index ([2]; 303.2 K): 1.4357 ± 0.0008
- refractive index ([2]; 304.2 K): 1.4355 ± 0.0008
- refractive index ([2]; 305.2 K): 1.4352 ± 0.0008
- refractive index ([2]; 306.2 K): 1.435 ± 0.0008
- refractive index ([2]; 307.2 K): 1.4348 ± 0.0008
- refractive index ([2]; 308.2 K): 1.4346 ± 0.0008

Reference: the NIST ThermoML archive (doi:10.1016/j.jct.2008.08.010)
